Data taken from patent US10059704B2, “1,4-disubstituted 1,2,3-triazoles, methods for preparing same, and diagnostic and therapeutic uses thereof” (CENTRE NATIONAL DE LA RECHERCHE SCIENTIFIQUE (C.N.R.S.), priority 2011, dated 2018).
Where two headings read alike, the source gives them in different places.

How the values were obtained:
nicotinic receptors Rα7 = nicotinic receptors Rα7 (Rattus norvegicus, UniProt Q05941); assay: biochemical; format: binding
[1] = rat frontal cortex membranes, [125I]α-bungarotoxin 2 nM, 22° C., 3 hours, Ki calculated from IC50 (Cheng and Prussof), read-out: Activity on Rα7

Sequence of nicotinic receptors Rα7 (Q05941 23-502): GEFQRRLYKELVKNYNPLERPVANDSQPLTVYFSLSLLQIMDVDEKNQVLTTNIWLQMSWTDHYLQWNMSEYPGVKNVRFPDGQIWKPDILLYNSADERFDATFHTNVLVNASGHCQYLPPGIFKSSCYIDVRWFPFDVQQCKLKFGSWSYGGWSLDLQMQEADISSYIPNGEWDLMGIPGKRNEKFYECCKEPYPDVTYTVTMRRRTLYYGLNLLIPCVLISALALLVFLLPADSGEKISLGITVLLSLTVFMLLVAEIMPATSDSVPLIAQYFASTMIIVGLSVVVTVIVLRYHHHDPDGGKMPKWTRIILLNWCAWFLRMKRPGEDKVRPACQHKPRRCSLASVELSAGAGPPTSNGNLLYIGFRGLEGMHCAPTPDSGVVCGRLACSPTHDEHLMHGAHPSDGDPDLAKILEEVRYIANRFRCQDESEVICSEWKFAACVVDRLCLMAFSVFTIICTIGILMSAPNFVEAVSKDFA

## c1ccc(-c2ccc(-c3cn([C@H]4CN5CCC4CC5)nn3)s2)cc1
other
  melting point: 184 °C

## COC(=O)c1ccc(-c2ccc(-c3cn([C@H]4CN5CCC4CC5)nn3)s2)cc1Cl
other
  melting point: 200 °C

## Clc1ccc(-c2cccc(-c3cn([C@H]4CN5CCC4CC5)nn3)c2)cn1
other
  melting point: 80 °C (dec.)

## CN1CCN(Cc2cccc(-c3ccc(-c4cn([C@H]5CN6CCC5CC6)nn4)s3)c2)CC1
other
  melting point: 155 °C

## O=[N+]([O-])c1ccc(-c2ccc(-c3cn([C@H]4CN5CCC4CC5)nn3)s2)cn1
other
  melting point: 160 °C

## O=[N+]([O-])c1ccc(-c2cccc(-c3cn([C@H]4CN5CCC4CC5)nn3)c2)cn1
other
  melting point: 180 °C

## FCc1cccc(-c2ccc(-c3cn([C@H]4CN5CCC4CC5)nn3)s2)c1
other
  melting point: 144 °C

## Cl.ClCc1ccc(-c2ccc(-c3cn([C@H]4CN5CCC4CC5)nn3)s2)cc1
other
  melting point: 255 °C

## Cl.ClCc1ccc(-c2cn([C@H]3CN4CCC3CC4)nn2)cc1
other
  melting point: 240 °C

## c1ccc(-c2cn(C3CCCN4CCCCC34)nn2)cc1 (stereo not shown)
other
  melting point: 150 °C

## Fc1ccc(-c2cn(C3CCCN4CCCCC34)nn2)cc1 (stereo not shown)
other
  melting point: 142 °C

## COc1ccc(-n2cc(C3(O)CN4CCC3CC4)nn2)cc1 (stereo not shown)
other
  melting point: 174 °C

## OC1(c2cn(-c3ccc(Br)cc3)nn2)CN2CCC1CC2 (stereo not shown)
other
  melting point: 214 °C

## Brc1ccc(-c2cn([C@H]3CN4CCC3CC4)nn2)o1
other
  melting point: 144 °C

## Brc1csc(-c2cn([C@H]3CN4CCC3CC4)nn2)c1
other
  melting point: 106 °C

## Brc1coc(-c2cn([C@H]3CN4CCC3CC4)nn2)c1
other
  melting point: 129 °C

## Fc1ccc(-c2ccc(-c3cn([C@H]4CN5CCC4CC5)nn3)cc2)cn1
other
  melting point: 181 °C

## c1ccc(-c2cn([C@H]3CN4CCC3CC4)nn2)cc1 [Compound 37, (R)-3-(4-Phenyl-1H-1,2,3-triazol-1-yl)quinuclidine]
Nicotinic receptors Rα7; [1]
  Ki: 8 ± 4 nM
other
  melting point: 132 °C

## OCc1ccc(-c2cn([C@H]3CN4CCC3CC4)nn2)cc1 [Compound 38, (R)-(4-(1-(Quinuclidin-3-yl)-1H-1,2,3-triazol-4-yl)phenyl)methanol]
other
  melting point: 200 °C

## Clc1ccc(-c2cn([C@H]3CN4CCC3CC4)nn2)cc1 [Compound 39, (R)-3-(4-(4-Chlorophenyl)-1H-1,2,3-triazol-1-yl)quinuclidine]
Nicotinic receptors Rα7; [1]
  Ki: 8 ± 3 nM
other
  melting point: 144 °C

## Clc1ccc(-c2cn([C@H]3CN4CCC3CC4)nn2)cc1Cl [Compound 40, (R)-3-(4-(3,4-Dichlorophenyl)-1H-1,2,3-triazol-1-yl)quinuclidine]
Nicotinic receptors Rα7; [1]
  Ki: 19 ± 6 nM
other
  melting point: 108 °C

## Brc1ccc(-c2cn([C@H]3CN4CCC3CC4)nn2)cc1 [Compound 41, (R)-3-(4-(4-Bromophenyl)-1H-1,2,3-triazol-1-yl)quinuclidine]
Nicotinic receptors Rα7
  Ki: 6 ± 3 nM
other
  melting point: 158 °C

## Fc1ccc(-c2cn([C@H]3CN4CCC3CC4)nn2)cc1 [Compound 42, (R)-3-(4-(4-Fluorophenyl)-1H-1,2,3-triazol-1-yl)quinuclidine]
other
  melting point: 180 °C

## Fc1cccc(-c2cn([C@H]3CN4CCC3CC4)nn2)c1 [Compound 43, (R)-3-(4-(3-Fluorophenyl)-1H-1,2,3-triazol-1-yl)quinuclidine]
Nicotinic receptors Rα7; [1]
  Ki: 10 ± 1 nM
other
  melting point: 120 °C

## Fc1ccccc1-c1cn([C@H]2CN3CCC2CC3)nn1 [Compound 44, (R)-3-(4-(2-Fluorophenyl)-1H-1,2,3-triazol-1-yl)quinuclidine]
Nicotinic receptors Rα7; [1]
  Ki: 13 ± 3 nM
other
  melting point: 94 °C

## Fc1ccc(-c2cn([C@H]3CN4CCC3CC4)nn2)cc1F [Compound 45, (R)-3-(4-(3,4-difluorophenyl)-1H-1,2,3-triazol-1-yl) quinuclidine]
Nicotinic receptors Rα7; [1]
  Ki: 10 ± 4 nM
other
  melting point: 122 °C

## COc1cccc(-c2cn([C@H]3CN4CCC3CC4)nn2)c1 [Compound 47, (R)-3-(4-(3-Methoxyphenyl)-1H-1,2,3-triazol-1-yl)quinuclidine]
Nicotinic receptors Rα7; [1]
  Ki: 2.3 ± 1 nM

## COc1ccccc1-c1cn([C@H]2CN3CCC2CC3)nn1 [Compound 48, (R)-3-(4-(2-Methoxyphenyl)-1H-1,2,3-triazol-1-yl)quinuclidine]
other
  melting point: 120 °C

## COc1ccc2cc(-c3cn([C@H]4CN5CCC4CC5)nn3)ccc2c1 [Compound 49, (R)-3-(4-(6-Methoxynaphthalen-2-yl)-1H-1,2,3-triazol-1-yl)quinuclidine]
Nicotinic receptors Rα7; [1]
  Ki: 196 ± 21 nM
other
  melting point: 186 °C

## c1cc(-c2cn([C@H]3CN4CCC3CC4)nn2)ccn1 [Compound 50, (R)-3-(4-(Pyridin-4-yl)-1H-1,2,3-triazole-1-yl)quinuclidine]
other
  melting point: 150 °C

## Fc1ccc(-c2cn([C@H]3CN4CCC3CC4)nn2)cn1 [Compound 51, (R)-3-(4-(6-fluoropyridin-3-yl)-1H-1,2,3-triazol-1-yl) quinuclidine]
Nicotinic receptors Rα7; [1]
  Ki: 469 ± 6 nM
other
  melting point: 147 °C

## COc1ccc(-c2cn([C@H]3CN4CCC3CC4)nn2)cn1 [Compound 52, (R)-3-(4-(6-Methoxypyridin-3-yl)-1H-1,2,3-triazol-1-yl)quinuclidine]
Nicotinic receptors Rα7; [1]
  Ki: 105 ± 29 nM
other
  melting point: 155 °C

## c1csc(-c2cn([C@H]3CN4CCC3CC4)nn2)c1 [Compound 53, (R)-3-(4-(Thiophen-2-yl)-1H-1,2,3-triazol-1-yl)quinuclidine]
Nicotinic receptors Rα7; [1]
  Ki: 9.5 ± 3 nM
other
  melting point: 137 °C

## Brc1ccc(-c2cn([C@H]3CN4CCC3CC4)nn2)s1 [Compound 54, (R)-3-(4-(5-Bromothiophen-2-yl)-1H-1,2,3-triazol-1-yl) quinuclidine]
Nicotinic receptors Rα7
  Ki: 13 ± 4 nM
other
  melting point: 146 °C

## c1cc2cc(-c3cn([C@H]4CN5CCC4CC5)nn3)ccc2s1 [Compound 55, (R)-3-(4 Benzo[b](thiophen-5-yl)-1H-1,2,3-triazol-1-yl) quinuclidine]
Nicotinic receptors Rα7; [1]
  Ki: 19 ± 1 nM
other
  melting point: 178 °C

## c1cc2cc(-c3cn([C@H]4CN5CCC4CC5)nn3)ccc2o1 [Compound 56, (R)-3-(4-(Benzofuran-5-yl)-1H-1,2,3-triazol-1-yl)quinuclidine]
Nicotinic receptors Rα7; [1]
  Ki: 3 ± 1 nM
other
  melting point: 178 °C

## FCc1ccc(-c2cn([C@H]3CN4CCC3CC4)nn2)cc1 [Compound 58, (R)-3-(4-(4-(Fluoromethyl)phenyl)-1H-1,2,3-triazol-1-yl)quinuclidine]
other
  melting point: 138 °C

## OCc1cccc(-c2ccc(-c3cn([C@H]4CN5CCC4CC5)nn3)s2)c1 [Compound 85, (R)-[3-[5-[1-[quinuclidin-3-yl]-1H2,3-triazol-4-yl]-2-thienyl]phenyl]methanol]
other
  melting point: 181 °C

## OCc1ccc(-c2csc(-c3cn([C@H]4CN5CCC4CC5)nn3)c2)cc1 [Compound 86, (R)-[4-[5-[1-[quinuclidin-3-yl]-1H-1,2,3-triazol-4-yl]-3-thienyl]phenyl]methanol]
other
  melting point: 196 °C

## Fc1ccc(-c2ccc(-c3cn([C@H]4CN5CCC4CC5)nn3)s2)cn1 [Compound 87, (R)-3-[4-[5-(6-fluoro-3-pyridyl)-2-thienyl]-1H,1,2,3-triazol-1-yl]quinuclidine]
other
  melting point: 163 °C

## Fc1ccc(-c2csc(-c3cn([C@H]4CN5CCC4CC5)nn3)c2)cn1 [Compound 88, (R)-3-[4-[4-(6-fluoro-3-pyridyl)-2-thienyl]-1H-1,2,3-triazol-1-yl]quinuclidine]
other
  melting point: 136 °C
